Source: PubChem BioAssay AID1259342 (Broad Institute, 2017)
The source made the active and inactive calls.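 Rule for the calls: active = fitted half-maximal inhibitory concentration AC50 at most ten times the top concentration tested; inconclusive = flat fit with 30 to 70% inhibition, or unusable fit; inactive = AC50 above ten times the top concentration.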

What follows are molecules tested against E3 ubiquitin-protein ligase TRIM62 (Homo sapiens) (UniProt Q9BVG3) (assay: inhibitors of TRIM62-driven CARD9 ubiquitylation, dose response, CARD9-TRIM62 disruptor project, biochemical, ubiquitin ELISA, AlphaLISA TUBE (AID 1259342;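 for AC50: potency is for inhibitors that reduce CARD9 ubiquitylation signal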)). Conditions: TRIM62-mediated CARD9 ubiquitylation, AlphaLISA TUBE detection.
Chain of E3 ubiquitin-protein ligase TRIM62 (Homo sapiens) (Q9BVG3 whole entry, looked up): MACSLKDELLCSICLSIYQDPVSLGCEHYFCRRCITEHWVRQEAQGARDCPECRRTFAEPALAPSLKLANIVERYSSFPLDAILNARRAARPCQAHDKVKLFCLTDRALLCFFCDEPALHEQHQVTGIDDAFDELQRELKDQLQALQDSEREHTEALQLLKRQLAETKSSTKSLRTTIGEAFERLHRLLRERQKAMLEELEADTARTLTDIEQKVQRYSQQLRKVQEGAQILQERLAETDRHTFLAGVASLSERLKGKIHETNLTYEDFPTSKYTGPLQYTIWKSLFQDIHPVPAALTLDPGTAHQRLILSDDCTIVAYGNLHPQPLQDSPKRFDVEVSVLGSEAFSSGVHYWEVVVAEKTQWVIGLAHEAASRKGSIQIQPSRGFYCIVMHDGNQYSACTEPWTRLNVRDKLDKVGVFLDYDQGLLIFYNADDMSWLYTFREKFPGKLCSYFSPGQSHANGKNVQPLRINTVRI
O=C(COc1cccnc1[N+](=O)[O-])c1ccc(Cl)s1 showed an AC50 of 26.2 µM.
Cc1ccccc1C(=O)Nc1cnc(N2CCC(C(N)=O)(N3CCCCC3)CC2)c(C(=O)O)c1 showed an AC50 of 9.03 µM.
Molecule O=C(COC(=O)c1cc(-c2cccs2)nc2ccccc12)NCc1ccco1 has an AC50 of 26.2 µM.
With COc1ccc(F)c(CN2C[C@H]3CC[C@@H]2CN(Cc2cscn2)C3)c1 the AC50 was > 160 µM (inactive).
Work on O=C(Nc1nccs1)c1cc(-c2ccco2)nc2ccccc12 yielded an AC50 of 15.7 µM.
CC(=O)c1cccc(OCC(=O)N(C)CC(=O)NCc2ccco2)c1 gave an AC50 of 1.35 µM.
Molecule COc1ccc(S(=O)(=O)N2CCN(C(=O)c3cc4c(s3)CCC4)CC2)cc1 has an AC50 of 10.2 µM.
C(=C\c1ccco1)/c1nc2ccccc2[nH]1 was tested, and the AC50 was 29 µM.
In the case of O=C1c2ccccc2-c2nc3ccccc3nc21, the AC50 is reported as > 160 µM (inactive).
Work on O=C(Nc1nccs1)c1cc(-c2ccccn2)nc2c(Cl)cccc12 yielded an AC50 of 75.4 µM.
Molecule O=C(Nc1nncs1)c1cc(-c2ccco2)nc2ccccc12 has an AC50 of 28.8 µM.
COc1ccc(-c2ccc(CCC(=O)O)o2)cc1 gave an AC50 of 18.1 µM.
COc1ccc(-n2c(C)c3c(OC)cccc(=O)c3c2C)cc1 gave an AC50 of 27.6 µM.
Molecule CC(C)(C)c1ccc(-c2nc(C#N)c(NCc3ccncc3)o2)cc1 has an AC50 of 22.3 µM.
For Cc1cccc2nc(CSCc3ccco3)cn12, the AC50 was 78.2 µM.
Work on O=C(NC1CC1)c1cc(-c2ccco2)nc2ccccc12 yielded an AC50 of 21.2 µM.
With Cc1ccc(Cc2cnc(N)s2)o1 the AC50 was > 160 µM (inactive).
CCN(CCNC(=O)C1CCN(S(=O)(=O)c2c(C)noc2C)CC1)c1ccccc1 was tested, and the AC50 was > 160 µM (inactive).
In the case of Cc1oc(CSCc2cc(C(=O)O)c(C)o2)cc1C(=O)O, the AC50 is reported as > 160 µM (inactive).
Cc1ccc(C(=O)Nc2cnc(N3CCC(C(N)=O)(N4CCCCC4)CC3)c(C(=O)O)c2)cc1 gave an AC50 of 9.21 µM.
For O=C(NCc1ccco1)c1c2c(nc3ccccc13)CCC2, the AC50 was 17.3 µM.
CC(C)C(CC(=O)NCc1ccco1)c1ccco1 (stereo unspecified) gave an AC50 of 5.47 µM.
N#CCSc1nc2c(c(=O)n1Cc1ccco1)C1(CCCC1)Cc1ccccc1-2 gave an AC50 of 57 µM.
For Cc1c(C(=O)OCC2CCCO2)[nH]c2c1C(=O)CC(c1ccco1)C2 (stereo unspecified), the AC50 was 38.1 µM.
For COc1cccc(NC(=O)CN(C)C(=O)c2cc3c(s2)CCC3)c1, the AC50 was 8.47 µM.
O=C(O)c1cc(-c2ccc(-c3ccc(F)cc3)o2)nc2ccccc12 showed an AC50 of 31.4 µM.
O=C(NCCCN1CCOCC1)c1cc(-c2ccco2)nc2ccccc12 showed an AC50 of 11.3 µM.

Same assay, conditions: TRIM62-mediated CARD9 ubiquitylation, AlphaLISA TUBE detection; at 38 µM (top of the series)
For Cc1ccc(Nc2nc(C(=O)Nc3ccc(Br)cc3)nc3ccccc23)cc1, the “activity change, negative = inhibition” value was “inactive”.
In the case of O=C1NC(c2ccc(Br)cc2)Nc2sc3c(c21)CCC3 (stereo unspecified), the “activity change, negative = inhibition” value is reported as “inactive”.
O=C(COC(=O)c1ccccc1Oc1ccccc1)NCc1ccco1 was tested, and the “activity change, negative = inhibition” value was “inactive”.
For O=C(NCCc1ccco1)c1ccc(OCc2cn3ccccc3n2)cc1, the “activity change, negative = inhibition” value was “inactive”.
In the case of Cc1ccc(-c2cc(C(=O)NCc3ccco3)c3ccccc3n2)o1, the “activity change, negative = inhibition” value is reported as “inactive”.

Same assay, conditions: TRIM62-mediated CARD9 ubiquitylation, AlphaLISA TUBE detection; at 80 µM (top of the series)
CC(C)=CCC(C#N)(CC=C(C)C)C(=O)O was tested, and the “activity change, negative = inhibition” value was “inactive”.
In the case of NC(=O)c1ccc(CN2C(=O)C3(CCNCC3)Nc3ccccc32)cc1, the “activity change, negative = inhibition” value is reported as “inactive”.
With CN1C(=O)C(c2ccccc2[N+](=O)[O-])C(=O)c2ccccc21 (stereo unspecified) the “activity change, negative = inhibition” value was “inactive”.
For O=C(CCc1nc(-c2ccccc2)no1)NCC1CNCCOC1 (stereo unspecified), the “activity change, negative = inhibition” value was “inactive”.
For O=C(NCc1ccco1)c1ccc(S(=O)(=O)N2CCOCC2)cc1, the “activity change, negative = inhibition” value was “inactive”.
For O=C(O)c1cc(-c2ccco2)nc2ccccc12, the “activity change, negative = inhibition” value was “inactive”.
Cc1occc1C(=O)NCc1cccc(CNC(=O)c2ccoc2C)c1 was tested, and the “activity change, negative = inhibition” value was “inactive”.
Cc1ccc(C(=O)Nc2ccc(N3CCC(C(N)=O)(N4CCCCC4)CC3)c(C(=O)O)c2)cc1 was tested, and the “activity change, negative = inhibition” value was “inactive”.
For O=C1CC(c2ccco2)Cc2nc(N3CCc4ccccc4C3)ncc21 (stereo unspecified), the “activity change, negative = inhibition” value was “inactive”.
For O=[N+]([O-])c1c(NCCCO)cc(SCc2ccco2)c2nonc12, the “activity change, negative = inhibition” value was “inactive”.
With O=C(N/N=C/C=C/c1ccco1)c1cncc(Br)c1 the “activity change, negative = inhibition” value was “inactive”.
In the case of CCOC(=O)c1ccc(-c2ccc(C3CC(=O)Nc4cc5c(cc43)OCCO5)o2)cc1 (stereo unspecified), the “activity change, negative = inhibition” value is reported as “inactive”.
For O=C(Nc1ccc2oc(-c3cccnc3)nc2c1)c1ccc2c(c1)OCCO2, the “activity change, negative = inhibition” value was “inactive”.
For Nc1ccc2ncccc2c1N, the “activity change, negative = inhibition” value was “inactive”.
With Cc1ccc2cc(CN(Cc3ccco3)S(C)(=O)=O)c(=O)[nH]c2c1 the “activity change, negative = inhibition” value was “inactive”.
For CCNc1ncc(C(=O)NCCc2nc3c(s2)CCCC3)cn1, the “activity change, negative = inhibition” value was “inactive”.
For O=C(CCCN1C(=O)NC2(CCCC2)C1=O)Nc1ccc(F)cc1, the “activity change, negative = inhibition” value was “inactive”.
In the case of Cc1cc(C)c2c(N)c(C(=O)Nc3cccc4ccccc34)sc2n1, the “activity change, negative = inhibition” value is reported as “inactive”.
In the case of CCCN1CCCn2nc(CNC(=O)[C@@H](N)Cc3ccc(O)cc3)cc2C1, the “activity change, negative = inhibition” value is reported as “inactive”.
With CCCc1cc(C(=O)N2CC[C@H]3CNC[C@H]32)n(C)n1 the “activity change, negative = inhibition” value was “inactive”.
With CN(C)c1ccc(CN2C[C@H]3CC[C@@H]2CN(C(=O)c2ccncc2)C3)cn1 the “activity change, negative = inhibition” value was “inactive”.
For COCCCNC(=O)C1CCN(c2ccc(N3CCOCC3)nn2)CC1, the “activity change, negative = inhibition” value was “inactive”.
In the case of O=C(Nc1ncccc1O)c1ccc(OCC2CCCO2)cc1 (stereo unspecified), the “activity change, negative = inhibition” value is reported as “inactive”.
In the case of CS(=O)(=O)c1ccc2ccn(O)c2c1, the “activity change, negative = inhibition” value is reported as “inactive”.
C[n+]1cccc2cccc(O)c21 was tested, and the “activity change, negative = inhibition” value was “inactive”.
Cc1scc(C(=O)NCc2ccco2)c1-c1ccccc1 was tested, and the “activity change, negative = inhibition” value was “inactive”.
For O=C(Nc1nnc(-c2ccco2)s1)c1ccccc1, the “activity change, negative = inhibition” value was “inactive”.
N#Cc1sc2nc(-c3ccccc3)cc(-c3ccco3)c2c1N was tested, and the “activity change, negative = inhibition” value was “inactive”.
For CCOc1ccccc1NC(=O)N1CCCC(c2nccn2CCOC)C1 (stereo unspecified), the “activity change, negative = inhibition” value was “inactive”.
For O=C(Nc1ccc2oc(-c3ccncc3)nc2c1)c1ccc2c(c1)OCO2, the “activity change, negative = inhibition” value was “inactive”.
With CS(=O)(=O)N1CCN(c2ccc([N+](=O)[O-])c(SCc3ccco3)c2)CC1 the “activity change, negative = inhibition” value was “inactive”.
For COc1ccc(-c2nnc(-c3nc(Nc4ccc(NC(C)=O)cc4)c4ccccc4n3)o2)cc1, the “activity change, negative = inhibition” value was “inactive”.
In the case of COc1ccc(S(=O)(=O)c2ccccc2)cc1NS(=O)(=O)c1cccc(C(=O)O)c1, the “activity change, negative = inhibition” value is reported as “inactive”.
Cc1cncc(-c2ccc(S(N)(=O)=O)cc2F)c1 was tested, and the “activity change, negative = inhibition” value was “inactive”.
